The values that follow come from ChEMBL document CHEMBL1146705, “Resistance towards exonucleases of dinucleotides with stereochemically altered internucleotide phosphate bonds” (Bioorg Med Chem Lett, 2004).

The nature of assay [1]: Ratio of Vmax to that of Km towards phosphodiesterase II (PDE II).
Assay [2] is described as follows: Vmax towards phosphodiesterase 1.
Assay [3] in a line: Ratio of Vmax to that of Km towards phosphodiesterase I (PDE I).
The nature of assay [4]: Affinity for phosphodiesterase 1.
The nature of assay [5]: Vmax towards phosphodiesterase I and II; NS = Non-substrate.

The structures appear in SMILES notation.

In general, Vmax refers to the top rate of the reaction or transport when substrate is in excess. In general, Km refers to the substrate concentration at which the rate is half of its maximum. For `Nc1ccn(C2C[C@@H](O)[C@@H](COP(=O)(O)O[C@H]3[C@@H](CO)OC[C@@H]3n3cnc4c(N)ncnc43)O2)c(=O)n1` (some centres undefined), the Ratio in assay [1] was 4.5; in assay [3], 15.4. Also, the maximal velocity (Vmax) in assay [2] is 19.2 mM/min. Besides, in assay [4], the Michaelis constant (Km) was 1250 µM.

For `Nc1ccn(C2C[C@@H](OP(=O)(O)OC[C@H]3OC[C@H](n4ccc(N)nc4=O)[C@H]3O)[C@@H](COP(=O)(O)O)O2)c(=O)n1` (some centres undefined), the Vmax entry in assay [5] is “Non substrate”.

On to `Nc1ccn(C2C[C@@H](O)[C@@H](COP(=O)(O)O[C@@H]3CC(n4ccc(N)nc4=O)O[C@@H]3CO)O2)c(=O)n1` (some centres undefined), for which the Ratio is 87.8 in assay [1] and 1610 in assay [3]. The Vmax in assay [2] was 1450 mM/min. Also, the Km in assay [4] was found to be 900 µM.

With `Nc1ccn(C2C[C@@H](O)[C@@H](COP(=O)(O)O[C@@H]3CC(n4cnc5c(N)ncnc54)O[C@@H]3CO)O2)c(=O)n1` (some centres undefined), the Ratio was 21.1 in assay [1] and 52.4 in assay [3]. For the same compound, in assay [2], the Vmax was found to be 141 mM/min. The Km in assay [4] came out at 2700 µM.

For `Nc1ccn([C@H]2C[C@H](O)[C@@H](COP(=O)(O)O[C@H]3[C@H](n4cnc5c(N)ncnc54)CO[C@@H]3COP(=O)(O)O)O2)c(=O)n1`, in assay [5], the Vmax entry was “Non substrate”.
